Test results: patent publication US20240262819A1, “NOVEL COMPOUNDS HAVING INHIBITORY ACTIVITY AGAINST GLUCOSYLCERAMIDE SYNTHASE OR PHARMACEUTICALLY ACCEPTABLE SALT THEREOF, PROCESSES FOR PREPARING THE SAME, AND PHARMACEUTICAL COMPOSITIONS COMPRISING THE SAME” (YUHAN CORPORATION, priority 2021, published 2024)

How the values were obtained:
[1] = molecular target: glucosylceramide synthase (GCS) (Homo sapiens (Human), UniProt Q16739); experiment: Evaluation of inhibitory activities against GCS (A549 cell lysate, NBD C6-ceramide, HPLC); assay type: biochemical; details: % GCS activity, A549 cell lysate, 37° C. for 90 minutes; read-out: IC50
Outline: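 GCS activity in A549 cell lysate (50 mM HEPES, pH 7.3) with NBD C6-ceramide, reacted 90 min at 37 °C. Lipids were chloroform/methanol-extracted and separated by normal-phase HPLC with fluorescence detection (ex 470/em 530 nm). GlcCer fraction of peak area was normalized between DMSO and ibiglustat, and IC50 obtained by curve fitting.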

[2] = system: GM1 production in Jurkat cells; experiment: cells; assay type: cell-based; details: read-out: IC50
[3] = Evaluation of blood-brain barrier (BBB) permeability through oral administration; assay type: in vivo, mice; details: mice, oral, dose 30 mg/kg, 4 hr
Outline: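 Mice dosed orally at 10 or 30 mg/10 ml/kg, suspended in 0.5% methyl cellulose with 0.2% Tween 80. Plasma and forebrain homogenate taken 4 hours post-dose, drug measured by LC-MS/MS; brain/plasma ratio calculated from tissue concentrations.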

glucosylceramide synthase (GCS), sequence (Q16739 whole entry): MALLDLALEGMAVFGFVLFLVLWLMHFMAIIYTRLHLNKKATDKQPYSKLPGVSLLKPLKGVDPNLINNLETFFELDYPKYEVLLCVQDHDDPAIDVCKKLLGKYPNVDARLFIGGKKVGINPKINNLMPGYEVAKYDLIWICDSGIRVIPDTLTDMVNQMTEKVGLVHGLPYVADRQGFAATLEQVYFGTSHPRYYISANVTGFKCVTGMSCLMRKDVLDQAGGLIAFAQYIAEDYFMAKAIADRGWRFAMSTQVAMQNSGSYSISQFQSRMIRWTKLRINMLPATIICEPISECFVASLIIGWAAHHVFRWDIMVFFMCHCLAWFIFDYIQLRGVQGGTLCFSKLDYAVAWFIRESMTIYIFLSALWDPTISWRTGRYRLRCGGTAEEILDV

(S)-quinuclidin-3-yl((R)-6-(2-chloro-4-isopropoxyphenyl)-7-fluoro-2,2-dimethyl-1,2,3,4-tetrahydronaphthalen-1-yl) carbamate [Example 199]
IC50 [1]: 0.192 nM | IC50 [2]: 0.03 nM | Mean brain-plasma drug ratio at 4 hr [3]: 1.165 | Mean drug concentrations in brain tissue at 4 hr [3]: 2689 ng/g | Mean drug concentrations in plasma at 4 hr [3]: 2327.6 ng/mL

(S)-quinuclidin-3-yl((R)-7-fluoro-2,2-dimethyl-6-(4-propoxyphenyl)-1,2,3,4-tetrahydronaphthalen-1-yl) carbamate [Example 177]
IC50 [1]: 0.25 nM | IC50 [2]: 0.43 nM | Mean brain-plasma drug ratio at 4 hr [3]: 5.444 | Mean drug concentrations in brain tissue at 4 hr [3]: 4788.9 ng/g | Mean drug concentrations in plasma at 4 hr [3]: 880.7 ng/mL
